Experimental data from patent US11319299B2, “Substituted carboxamides as inhibitors of WDR5 protein-protein binding” (PROPELLON THERAPEUTICS INC., priority 2016, dated 2022).

target: WDR5 (Homo sapiens (Human), UniProt P61964); assay: Surface Plasmon Resonance (SPR) assay, KD and residence time; assay type: binding; conditions: surface plasmon resonance (SPR); read-out: WDR5 binding affinity (KD)

Row | SMILES | Kd [nM]
1 | CC1CN(c2cc(F)c(-c3csc(N4CCOCC4)n3)cc2NC(=O)c2cn(C)c(=O)cc2C(F)F)CCN1C (stereo in doubt) [Example 620, 4-(difluoromethyl)-N-[4-fluoro-5-(2-morpholin-4-yl-1,3-thiazol-4-yl)-2-[(3R)-3,4-dimethylpiperazin-1-yl]phenyl]-1-methyl-6-oxopyridine-3-carboxamide] | 4.19
2 | CC1CN(c2cc(F)c(-c3cnc(N4CCOCC4)s3)cc2NC(=O)c2cn(C)c(=O)cc2C(F)F)CCN1C (stereo in doubt) [Example 621, 4-(difluoromethyl)-N-[4-fluoro-5-(2-morpholin-4-yl-1,3-thiazol-5-yl)-2-[(3R)-3,4-dimethylpiperazin-1-yl]phenyl]-1-methyl-6-oxopyridine-3-carboxamide] | 4.84
3 | CC1CN(c2cc(F)c(-c3cc(C(=O)NC(C)(C)CC(C)(C)C)c(F)cc3F)cc2NC(=O)c2ccc(F)cc2C(F)(F)F)CCN1C (stereo in doubt) [Example 625, 2,4-difluoro-5-[2-fluoro-5-[[4-fluoro-2-(trifluoromethyl)benzoyl]amino]-4-[(3R)-3,4-dimethylpiperazin-1-yl]phenyl]-N-(2,4,4-trimethylpentan-2-yl)benzamide] | 172
4 | CC1CN(c2cc(F)c(-c3cc(C(N)=O)c(F)cc3F)cc2NC(=O)c2ccc(F)cc2C(F)(F)F)CCN1C (stereo in doubt) [Example 635, 2,4-difluoro-5-[2-fluoro-5-[[4-fluoro-2-(trifluoromethyl)benzoyl]amino]-4-[(3R)-3,4-dimethylpiperazin-1-yl]phenyl]benzamide] | 66.9
5 | CC1CN(c2cc(F)c(C3=CCCN(c4ncccn4)C3)cc2NC(=O)c2ccc(F)cc2C(F)(F)F)CCN1C (stereo in doubt) [Example 649, 4-fluoro-N-[4-fluoro-5-(1-pyrimidin-2-yl-3,6-dihydro-2H-pyridin-5-yl)-2-[(3R)-3,4-dimethylpiperazin-1-yl]phenyl]-2-(trifluoromethyl)benzamide] | 1.87
6 | CC1CN(c2cc(F)c(C3=CCCN(c4ncc(C=O)cn4)C3)cc2NC(=O)c2ccc(F)cc2C(F)(F)F)CCN1C (stereo in doubt) [Example 650, 4-fluoro-N-[4-fluoro-5-[1-(5-formylpyrimidin-2-yl)-3,6-dihydro-2H-pyridin-5-yl]-2-[(3R)-3,4-dimethylpiperazin-1-yl]phenyl]-2-(trifluoromethyl)benzamide] | 5.18
7 | CC1CN(c2cc(F)c(-c3ccc(C(N)=O)c(F)c3)cc2NC(=O)c2cn(C)c(=O)cc2C(F)F)CCN1C (stereo in doubt) [Example 652, N-[5-(4-carbamoyl-3-fluorophenyl)-4-fluoro-2-[(3R)-3,4-dimethylpiperazin-1-yl]phenyl]-4-(difluoromethyl)-1-methyl-6-oxopyridine-3-carboxamide] | 5.29
8 | CNC(=O)c1ccc(-c2cc(NC(=O)c3cn(C)c(=O)cc3C(F)F)c(N3CCN(C)C(C)C3)cc2F)cc1F (stereo in doubt) [Example 653, 4-(difluoromethyl)-N-[4-fluoro-5-[3-fluoro-4-(methylcarbamoyl)phenyl]-2-[(3R)-3,4-dimethylpiperazin-1-yl]phenyl]-1-methyl-6-oxopyridine-3-carboxamide] | 3.43
9 | CC1CN(c2cc(F)c(-c3cc(F)c(C(N)=O)c(F)c3)cc2NC(=O)c2ccc(F)cc2C(F)(F)F)CCN1C (stereo in doubt) [Example 657, 2,6-difluoro-4-[2-fluoro-5-[[4-fluoro-2-(trifluoromethyl)benzoyl]amino]-4-[(3R)-3,4-dimethylpiperazin-1-yl]phenyl]benzamide] | 4.69
10 | CC1CN(c2cc(F)c(-c3ccnc(N4CCOCC4)n3)cc2NC(=O)c2cn(C)c(=O)cc2C(F)F)CCN1C (stereo in doubt) [Example 664, 4-(difluoromethyl)-N-[4-fluoro-5-(2-morpholin-4-ylpyrimidin-4-yl)-2-[(3R)-3,4-dimethylpiperazin-1-yl]phenyl]-1-methyl-6-oxopyridine-3-carboxamide] | 2.68
11 | CC1CN(c2cc(F)c(-c3ccc(C(=O)NC(C)(C)CC(C)(C)C)c(F)c3F)cc2NC(=O)c2ccc(F)cc2C(F)(F)F)CCN1C (stereo in doubt) [Example 666, 2,3-difluoro-4-[2-fluoro-5-[[4-fluoro-2-(trifluoromethyl)benzoyl]amino]-4-[(3R)-3,4-dimethylpiperazin-1-yl]phenyl]-N-(2,4,4-trimethylpentan-2-yl)benzamide] | 117
12 | CC1CN(c2cc(F)c(-c3ccc(C(N)=O)c(F)c3F)cc2NC(=O)c2ccc(F)cc2C(F)(F)F)CCN1C (stereo in doubt) [Example 668, 2,3-difluoro-4-[2-fluoro-5-[[4-fluoro-2-(trifluoromethyl)benzoyl]amino]-4-[(3R)-3,4-dimethylpiperazin-1-yl]phenyl]benzamide] | 18.3

These reach a lower Kd. Values come first.

Row | Kd [nM] | SMILES
13 | 1.25 | C[C@@H]1CN(c2cc(F)c(-c3cnc(N4CCOC[C@H]4C)nc3)cc2NC(=O)c2c[nH]c(=O)cc2C(F)F)CCN1C (stereo in doubt) [Example 628, 4-(difluoromethyl)-N-[4-fluoro-2-[(3R)-3,4-dimethylpiperazin-1-yl]-5-[2-[(3R)-3-methylmorpholin-4-yl]pyrimidin-5-yl]phenyl]-6-oxo-1H-pyridine-3-carboxamide]
14 | 1.13 | CC1CN(c2cc(F)c(-c3cnc(N4CCOCC4)s3)cc2NC(=O)c2c[nH]c(=O)cc2C(F)(F)F)CCN1C (stereo in doubt) [Example 618, N-[4-fluoro-5-(2-morpholin-4-yl-1,3-thiazol-5-yl)-2-[(3R)-3,4-dimethylpiperazin-1-yl]phenyl]-6-oxo-4-(trifluoromethyl)-1H-pyridine-3-carboxamide]
15 | 1.06 | CC1CN(c2cc(F)c(-c3ccnc(N4CCOCC4)n3)cc2NC(=O)c2ccc(F)cc2C(F)F)CCN1C (stereo in doubt) [Example 655, 2-(difluoromethyl)-4-fluoro-N-[4-fluoro-5-(2-morpholin-4-ylpyrimidin-4-yl)-2-[(3R)-3,4-dimethylpiperazin-1-yl]phenyl]benzamide]
16 | 0.922 | CC1CN(c2cc(F)c(-c3cnc(N4CCC(C)(O)CC4)nc3)cc2NC(=O)c2ccc(F)cc2C(F)(F)F)CCN1C (stereo in doubt) [Example 613, 4-fluoro-N-[4-fluoro-5-[2-(4-hydroxy-4-methylpiperidin-1-yl)pyrimidin-5-yl]-2-[(3R)-3,4-dimethylpiperazin-1-yl]phenyl]-2-(trifluoromethyl)benzamide]
17 | 0.733 | CC1CN(c2cc(F)c(-c3ccnc(N4CCOCC4)n3)cc2NC(=O)c2ccc(F)cc2C(F)(F)F)CCN1C (stereo in doubt) [Example 614, 4-fluoro-N-[4-fluoro-5-(2-morpholin-4-ylpyrimidin-4-yl)-2-[(3R)-3,4-dimethylpiperazin-1-yl]phenyl]-2-(trifluoromethyl)benzamide]
18 | 0.29 | C[C@@H]1CN(c2nccc(-c3cc(NC(=O)c4ccc(F)cc4C(F)(F)F)c(N4CCN(C)[C@H](C)C4)cc3F)n2)CCO1 (stereo in doubt) [Example 660, 4-fluoro-N-[4-fluoro-2-[(3R)-3,4-dimethylpiperazin-1-yl]-5-[2-[(2R)-2-methylmorpholin-4-yl]pyrimidin-4-yl]phenyl]-2-(trifluoromethyl)benzamide]
